Active and inactive are the calls of the source. The rule behind the calls is not given here.
Key:
[1] = Plasma concentration in normal chow diet-fed cynomolgus monkey at 3 mg/kg, po for 5 days; format: ADME, organism-based, Macaca fascicularis; design: dose 3 mg/kg, route oral
Hamster [2] = experiment: Increase in HDLC level in po dosed high-fat fed hamster model; format: functional, organism-based; conditions: Cricetinae
[3] = Clearance in rat at 2 to 3 mg/kg, iv and 10 mg/kg, po; format: ADME, organism-based; conditions: in vivo
Mus musculus [4] = experiment: Increase in HDLC level in normal chow diet-fed human CETP transgenic mouse model at 30 mg/kg, po for 5 days measured after 2 hrs of last dose; format: functional
Mus musculus [5] = experiment: Increase in HDLC level in po dosed normal chow diet-fed human CETP transgenic mouse model; format: functional, organism-based
[6] = target: T1, Phosphatidylcholine-sterol acyltransferase (Homo sapiens) (UniProt P04180); experiment: Inhibition of LCAT activity in human plasma assessed as change in cholesteryl ester/free cholesterol ratio by cell based assay
T1 sequence (whole entry): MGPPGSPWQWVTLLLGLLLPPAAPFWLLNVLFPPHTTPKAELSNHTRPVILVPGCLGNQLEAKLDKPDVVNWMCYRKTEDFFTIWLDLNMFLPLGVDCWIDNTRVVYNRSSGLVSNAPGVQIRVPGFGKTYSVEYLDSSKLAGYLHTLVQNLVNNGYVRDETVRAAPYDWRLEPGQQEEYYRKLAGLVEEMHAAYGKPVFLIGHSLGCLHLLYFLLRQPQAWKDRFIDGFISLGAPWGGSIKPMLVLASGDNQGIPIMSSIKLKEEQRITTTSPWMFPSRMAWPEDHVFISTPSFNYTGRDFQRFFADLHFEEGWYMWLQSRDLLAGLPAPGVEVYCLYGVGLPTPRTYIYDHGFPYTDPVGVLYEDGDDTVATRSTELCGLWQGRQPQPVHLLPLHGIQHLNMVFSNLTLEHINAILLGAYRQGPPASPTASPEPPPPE

Cynomolgus monkey [7] = experiment: Increase in HDLC level in normal chow diet-fed cynomolgus monkey at 30 mg/kg, po for 5 days measured after 10 hrs of last dose; format: functional, Macaca fascicularis
Mus musculus [8] = experiment: Increase in HDLC level in normal chow diet-fed human CETP transgenic mouse model at 3 mg/kg, po for 5 days measured after 2 hrs of last dose; format: functional, organism-based; design: dose 3 mg/kg
Cynomolgus monkey [9] = experiment: Ex vivo inhibition of CETP in po dosed normal chow diet-fed cynomolgus monkey by Roar assay; format: functional, organism-based; conditions: Macaca fascicularis
[10] = Metabolic stability in human liver microsomes assessed as half life; format: ADME, Microsome
[11] = Half life in rat at 2 to 3 mg/kg, iv and 10 mg/kg, po; format: ADME, organism-based; conditions: in vivo
[12] = Oral bioavailability in rat at 10 mg/kg; format: ADME, organism-based; conditions: in vivo
[13] = Volume of distribution at steady state in rat at 2 to 3 mg/kg, iv and 10 mg/kg, po; format: ADME, organism-based; conditions: in vivo, read-out: Vdss
[14] = target: T2, Endothelial lipase (Homo sapiens) (UniProt Q9Y5X9); experiment: Inhibition of endothelial lipase by cell based assay
T2 sequence (whole entry): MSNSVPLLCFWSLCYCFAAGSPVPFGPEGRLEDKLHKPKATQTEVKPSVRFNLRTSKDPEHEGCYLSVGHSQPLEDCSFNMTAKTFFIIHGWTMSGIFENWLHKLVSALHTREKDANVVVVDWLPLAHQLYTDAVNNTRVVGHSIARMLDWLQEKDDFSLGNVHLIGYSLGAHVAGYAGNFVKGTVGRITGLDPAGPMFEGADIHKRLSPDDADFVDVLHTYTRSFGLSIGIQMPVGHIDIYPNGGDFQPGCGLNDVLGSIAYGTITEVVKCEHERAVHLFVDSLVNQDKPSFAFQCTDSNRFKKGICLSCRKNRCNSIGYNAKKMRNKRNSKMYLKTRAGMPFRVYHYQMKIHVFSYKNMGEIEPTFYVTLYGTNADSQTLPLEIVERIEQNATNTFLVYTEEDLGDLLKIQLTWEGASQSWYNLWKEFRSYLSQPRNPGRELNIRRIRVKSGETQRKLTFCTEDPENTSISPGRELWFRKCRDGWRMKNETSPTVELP

Cynomolgus monkey [15] = experiment: Ex vivo inhibition of CETP in normal chow diet-fed cynomolgus monkey at 10 mg/kg, po for 5 days by Roar assay; format: functional; conditions: Macaca fascicularis, 120 h
Hamster [16] = experiment: Increase in HDLC level in high-fat fed hamster model at 10 mg/kg, po for 5 days measured after 2 hrs of last dose; format: functional, Cricetinae
[17] = Tmax in rat at 2 to 3 mg/kg, iv and 10 mg/kg, po; format: ADME, organism-based; conditions: in vivo
Cynomolgus monkey [18] = experiment: Ex vivo inhibition of CETP in normal chow diet-fed cynomolgus monkey at 30 mg/kg, po for 5 days by Roar assay; format: functional; conditions: Macaca fascicularis, 120 h
[19] = target: T3, Hepatic triacylglycerol lipase (Homo sapiens) (UniProt P11150); experiment: Inhibition of hepatic lipase activity assessed as release of free fatty acid from hydrolysis of VLDL by cell based assay
T3 sequence (whole entry): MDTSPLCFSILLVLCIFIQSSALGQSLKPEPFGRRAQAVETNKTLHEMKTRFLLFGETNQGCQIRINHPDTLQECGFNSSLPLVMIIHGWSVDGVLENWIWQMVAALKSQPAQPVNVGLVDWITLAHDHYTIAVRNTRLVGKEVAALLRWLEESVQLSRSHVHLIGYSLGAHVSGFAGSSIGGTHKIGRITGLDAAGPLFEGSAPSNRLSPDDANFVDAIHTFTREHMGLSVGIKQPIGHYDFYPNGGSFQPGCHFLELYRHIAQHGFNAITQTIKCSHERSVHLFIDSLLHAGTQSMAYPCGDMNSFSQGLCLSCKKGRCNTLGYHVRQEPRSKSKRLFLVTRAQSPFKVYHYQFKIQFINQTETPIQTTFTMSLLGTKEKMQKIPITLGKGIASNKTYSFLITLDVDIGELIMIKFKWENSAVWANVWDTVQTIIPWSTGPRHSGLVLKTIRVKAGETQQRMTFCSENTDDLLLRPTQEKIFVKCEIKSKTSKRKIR

[20] = target: T4, Microsomal triglyceride transfer protein large subunit (Homo sapiens) (UniProt P55157); experiment: Inhibition of microsomal triglyceride transfer protein by cell based assay
T4 sequence (whole entry): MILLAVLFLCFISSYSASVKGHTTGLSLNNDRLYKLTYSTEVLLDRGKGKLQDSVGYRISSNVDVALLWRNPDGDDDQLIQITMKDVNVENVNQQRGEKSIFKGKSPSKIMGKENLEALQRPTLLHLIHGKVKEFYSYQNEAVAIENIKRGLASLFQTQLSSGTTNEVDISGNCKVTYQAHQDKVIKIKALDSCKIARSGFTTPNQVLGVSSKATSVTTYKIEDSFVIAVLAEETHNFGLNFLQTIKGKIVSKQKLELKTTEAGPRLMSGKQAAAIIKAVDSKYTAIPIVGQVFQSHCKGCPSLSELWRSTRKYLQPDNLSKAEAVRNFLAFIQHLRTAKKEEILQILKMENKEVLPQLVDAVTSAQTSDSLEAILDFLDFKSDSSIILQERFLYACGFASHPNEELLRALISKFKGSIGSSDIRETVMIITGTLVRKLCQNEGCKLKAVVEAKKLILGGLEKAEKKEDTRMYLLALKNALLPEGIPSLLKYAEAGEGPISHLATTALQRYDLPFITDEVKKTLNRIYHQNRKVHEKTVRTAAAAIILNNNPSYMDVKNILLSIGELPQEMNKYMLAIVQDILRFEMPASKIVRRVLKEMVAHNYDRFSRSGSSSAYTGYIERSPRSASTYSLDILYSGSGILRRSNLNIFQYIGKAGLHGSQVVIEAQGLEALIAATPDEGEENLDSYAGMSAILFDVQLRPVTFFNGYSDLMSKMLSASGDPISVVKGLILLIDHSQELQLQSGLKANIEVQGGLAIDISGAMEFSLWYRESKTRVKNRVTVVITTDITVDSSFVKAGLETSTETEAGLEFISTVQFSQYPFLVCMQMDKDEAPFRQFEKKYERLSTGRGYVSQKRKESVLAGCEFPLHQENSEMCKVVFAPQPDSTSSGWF

O[C@@H](CN1c2cccc(-c3cccc(OC(F)(F)F)c3)c2CC[C@@H]1c1cccc(OC(F)(F)C(F)F)c1)C(F)(F)F
concentration at 120 h [1]: 400 nM
Activity (Hamster [2]): Dose-dependent effect
clearance [3]: 1.8 mL/min/kg
Activity (Mus musculus [4]): 25%
Activity (Mus musculus [5]): Dose-dependent effect
Activity [6]: inactive
Activity (Cynomolgus monkey [7]): 32%
Activity (Mus musculus [8]): Active
Activity (Cynomolgus monkey [9]): Dose-dependent effect
half-life [10]: > 2.13 h
half-life [11]: 28 h
bioavailability [12]: 31%
Vd [13]: 0.36 L/kg
Activity [14]: inactive
inhibition in vivo at 10 mg/kg (Cynomolgus monkey [15]): 51%
Activity (Hamster [16]): 36%
Tmax [17]: 6 h
inhibition in vivo at 30 mg/kg (Cynomolgus monkey [18]): 67%
Activity [19]: inactive
Activity [20]: inactive
